Test results reported in US20080146555A1, “Uses of Kinase Inhibitors and Compositions Thereof” (GPC Biotech, Inc, priority 2004, published 2008).
Counter-ions that a name gives are not always drawn. Like-named read-outs stand apart in the source and are kept apart here.

Legend:
JNK1α1 = molecular target: T1, JNK1α1 (Homo sapiens, UniProt P45983); assay: JNK1α1 kinase assay; format: biochemical
T1 construct: purchased Upstate 14-327
Experimental: • 1. 10× Reaction Buffer: 500 mM Tris-HCl pH 7.5, 1 mM EGTA, 1% 2-mercaptoethanol. • 2. Enzyme Dilution Buffer (EDB): 50 mM Tris-HCl pH 7.5, 0.1 mM EGTA, 0.1% 2-mercaptoethanol, 1 mg/ml BSA. • 3. JNK 11/SAPK1c, active: Dilute to 0.4-8 ng/μl with EDB. Use […] per assay point. • 4. ATF2 (amino acids 19-96) (Catalog #12-367): Prepare a 1.08 mg/ml stock. Use 2.5 μl per assay point for a final concentration of 3 μM per assay point. • 5. Magnesium/ATP Cocktail (Catalog #20-113): 75 mM MgCl2 and 500 μM ATP in 20 mM MOPS, pH 7.2, 25 mM β-glycerol phosphate, 5 mM EGTA, 1 mM sodium orthovanadate, 1 mM dithiothreitol. • 6. [γ-^32P]ATP: Stock 1 mCi/100 μl (3000 Ci/mmol, obtained from PerkinElmer, Cat. # BLU002A). Make 10 μl aliquots (100 μCi/vial). Before starting the assay, dilute an aliquot to 1 μCi/μl with 90 μl of Magnesium/ATP Cocktail diluted 1:2 with sterile, distilled water. […]
• 1. Add 2.5 μl of 10× Reaction Buffer per assay. • 2. Add 2.5 μl of ATF2 (amino acids 19-96). • 3. Add 2.5 μl (1-20 ng) JNK1α1/SAPK1c, active. • 4. Add 7.5 μl of sterile, distilled water. • 5. Add 10 μl of the diluted [γ-^32P]ATP mixture. • 6. Incubate for 10 minutes at 30° C. • 7. Transfer a 20 μl aliquot onto the center of a 2 cm×2 cm P81 paper. • 8. Wash the assay squares three times for 5 minutes with 0.75% phosphoric acid. • 9. Wash the assay squares once for 5 minutes with acetone. • 10. Transfer the assay squares to vial and add 5 ml scintillation cocktail. • 11. Read in scintillation counter. Compare cpm of enzyme samples to cpm of control samples that contain background control.

normal cells = assay: Activity on normal cells; format: cell-based
HT29/mit = assay: SRB cytotoxicity, mitoxanthrone resistant cells; format: cell-based, human
Experimental: In these experiments, the P-glycoprotein expressing NCI-Adr resistant subline (Vickers et al., 1989. Mol Endocrinology 3 (1):157-164) was used. […] Briefly, cells were plated in 96 well dishes 24 hours prior to compound addition. Where noted, they were exposed to verapamil for 4 hours prior to compound addition and then throughout the treatment period (72 hours). The assay was terminated with the addition of cold TCA to a final concentration of 10% and the plates were incubated for one hour at 4° C. The plates were then washed 5 times with water and 100 μl of a Sulforhodamine B solution (4%) was added to each well. The plate was then incubated for 10 minutes at room temperature before removal of unbound dye by washing with 1% acetic acid. The bound dye was solubilized with 10 mM Trizma base and the absorbance read at OD570.
The parental non-mutated cell line HT29 was used as a control.
Z. Cytotoxicity was measured using the SRB assay according to Shekan et al. as described above in Example 1A.

[1] = system: NCI panel of 60 cell lines; assay: cells
Text: The evaluation of compounds at the National Cancer Institute in their panel of 60 cell lines provides a wealth of information regarding efficacy in a wide range of tumor types and genetic backgrounds. Included within this panel are cell lines derived from leukemia, melanoma and cancers of the lung, colon, brain, ovary, breast, prostate and kidney. Use of this panel provides a measure of the efficacy of compounds in cells with alterations in many genes that are associated with neoplastic transformation including p53 and Her2/Neu as well as those involved in metabolism and those which confer multi-drug resistance. The data generated in these cell lines with the protocol described below can be used to evaluate the activity of compounds.
Cells were grown in RPMI-1640 10% FCS and plated in 96 well micro-titer plates at densities ranging from 5,000 to 40,000 cells/well. The plates were incubated for 24 hours at 37° C., 5% CO2 for 24 hours. Media containing twice the desired final concentration of the compound (5 doses spanning 4 logs) was prepared and 100 μl was added to each well containing 100 μl media plus cells to yield the desired final concentration. The plates were then incubated for an additional 48 hours.
The effect of the compound on cellular viability was determined with the Sulforhodamine B (SRB) assay, which measures total protein. Cells were fixed with cold TCA to a final concentration of 10% and incubated at 4° C. for 60 minutes. The supernatant was discarded and the plates were washed five times with water and air-dried. SRB solution at […] in 1% acetic acid was added to each well and the plates were incubated for 10 minutes at room temperature. The plates were washed five times with 1% acetic acid and air-dried. The bound stain was solubilized with 10 mM trizma base and the absorbance was read on a plate reader at […].

[2] = kinase panel, 10 μM ATP, read-out: JNK1α1 IC50
[3] = read-out: MAPK8 Inhibition (IC50)

T1 sequence (P45983 1-384 isoform P45983-2, species assumed): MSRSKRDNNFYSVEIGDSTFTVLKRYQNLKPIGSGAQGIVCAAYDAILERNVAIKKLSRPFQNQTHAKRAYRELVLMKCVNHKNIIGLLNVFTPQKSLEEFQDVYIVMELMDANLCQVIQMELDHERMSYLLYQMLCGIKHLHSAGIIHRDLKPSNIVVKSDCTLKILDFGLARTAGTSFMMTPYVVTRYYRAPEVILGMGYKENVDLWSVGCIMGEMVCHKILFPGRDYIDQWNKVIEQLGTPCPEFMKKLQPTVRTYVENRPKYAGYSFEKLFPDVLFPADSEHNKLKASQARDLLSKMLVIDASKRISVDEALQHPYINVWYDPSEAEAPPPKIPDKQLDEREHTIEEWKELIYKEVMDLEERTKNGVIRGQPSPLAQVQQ

| SMILES | IC50 (JNK1α1; [2]) [nM] | IC50 (JNK1α1; [3]) [nM] | IC50 (normal cells) [nM] | RR (relative resistance) HT29/mit vs HT29 (HT29/mit) | IC50 (HT29/mit; Homo sapiens, HT-29, 72 h, SRB) [nM] | NCI assay Ave TGI [1] [nM] |
| --- | --- | --- | --- | --- | --- | --- |
| COCCN1CCN(Cc2ccc(-c3n[nH]c4c3C(=O)c3c(NC(=O)NN5CCOCC5)cccc3-4)cc2)CC1 [Compound B16, N-[3-(4-{[4-(2-methoxyethyl)piperazinyl]methyl}phenyl)-4-oxoindeno[2,3-d]pyrazol-5-yl](morpholin-4-ylamino)carboxamide dihydrochloride] | < 100 | < 100 | 10900 | 22.1 | 1700 | – |
| CC(C)N1CCN(C(=O)COc2ccc(-c3n[nH]c4c3C(=O)c3c(NC(=O)NN5CCOCC5)cccc3-4)cc2)CC1 [Compound A37] | 10 to 100 | < 50 | – | – | – | 2060 |
